Data as given in patent US8455665B2, “3-phenoxymethylpyrrolidine compounds” (Theravance, Inc., priority 2009, dated 2013).

What was measured:
NET [1] = target: T1, NET (Homo sapiens, UniProt P23975); experiment: fluorescence-based norepinephrine uptake assay (Tsuruda et al. 2010); format: cell-based; conditions: norepinephrine reuptake inhibition, fluorescence-based assay (data indicated by an asterisk); read-out: NET pIC50 (converted)
SERT [2] = target: T2, SERT (Homo sapiens, UniProt P31645); experiment: hSERT membrane radioligand binding assay (3H-citalopram); parameters: expressed in transfected cells; host or cells: HEK-293; conditions: hSERT membranes (HEK-293), 1.0 nM 3H-citalopram; for Ki: read-out: SERT pKi (converted)
Method: (§1) Membrane radioligand binding assays were used to measure inhibition of labeled ligand (^3H-citalopram or ^3H-nisoxetine or ^3H-WIN35428) binding to membranes prepared from cells expressing the respective human recombinant transporter (hSERT or hNET or hDAT) in order to determine the pKi values of test compounds at the transporters.
(§2) Recombinant human embryonic kidney (HEK-293) derived cell lines stably transfected with hSERT or hNET, respectively, were grown in DMEM medium supplemented with 10% dialyzed FBS (for hSERT) or FBS (for hNET), 100 μg/ml penicillin, 100 μg/ml streptomycin, 2 mM L-glutamine and 250 μg/ml of the aminoglycoside antibiotic G418, in a 5% CO2 humidified incubator at 37° C. When cultures reached 80% confluence, the cells were washed thoroughly in PBS (without Ca^2+ and Mg^2+) and lifted with 5 mM EDTA in PBS. Cells were pelleted by centrifugation, resuspended in lysis buffer (10 mM Tris-HCl, pH7.5 containing 1 mM EDTA), homogenized, pelleted by centrifugation, then resuspended in 50 mM Tris-HCl, pH 7.5 and 10% sucrose at 4° C. Protein concentration of the membrane suspension was determined using a Bio-Rad Bradford Protein Assay kit. Membranes were snap frozen and stored at −80° C. Chinese hamster ovary membranes expressing hDAT (CHO-DAT) were purchased from PerkinElmer and stored at −80° C.
(§3) Binding assays were performed in a 96-well assay plate in a total volume of 200 μl assay buffer (50 mM Tris-HCl, 120 mM NaCl, 5 mM KCl, pH 7.4) with 0.5, 1, and 3 μg membrane protein, for SERT, NET and DAT, respectively.
(§4) Stock solutions (10 mM in DMSO) of test compound were prepared and serial dilutions made using Dilution Buffer (50 mM Tris-HCl, 120 mM NaCl, 5 mM KCl, pH 7.4, 0.1% BSA, 400 μM ascorbic acid). Non-specific radioligand binding was determined in the presence of 1 μM duloxetine, 1 μM desipramine or 10 μM GBR12909 (each in Dilution Buffer) for the hSERT, hNET or hDAT assays, respectively.
(§5) Following a 60 minute incubation at 22° C. (or a period sufficient to reach equilibrium), the membranes were harvested by rapid filtration over a 96-well UniFilter GF/B plate, pretreated with 0.3% polyethyleneimine, and washed 6 times with […] (50 mM Tris-HCl, 0.9% NaCl, pH 7.5 at 4° C.). Plates were dried overnight at room temperature, approximately […] of MicroScint™-20 (Perkin Elmer) added and bound radioactivity quantitated via liquid scintillation spectroscopy. Inhibition curves and saturation isotherms were analyzed using GraphPad Prism Software package (GraphPad Software, Inc., San Diego, Calif.). IC50 values were generated from concentration response curves using the Sigmoidal Dose Response (variable slope) algorithm in Prism GraphPad. Kd and Bmax values for the radioligand were generated from saturation isotherms using the Saturation Binding Global Fit algorithm in Prism GraphPad. pKi (negative decadic logarithm of Ki) values for test compounds were calculated from the best-fit IC50 values, and the Kd value of the radioligand, using the Cheng-Prusoff equation (Cheng & Prusoff (1973) Biochem. Pharmacol. 22(23):3099-3108): Ki=IC50/(1+[L]/Kd), where [L]=concentration radioligand.
Target sequence in this assay (P31645 whole entry): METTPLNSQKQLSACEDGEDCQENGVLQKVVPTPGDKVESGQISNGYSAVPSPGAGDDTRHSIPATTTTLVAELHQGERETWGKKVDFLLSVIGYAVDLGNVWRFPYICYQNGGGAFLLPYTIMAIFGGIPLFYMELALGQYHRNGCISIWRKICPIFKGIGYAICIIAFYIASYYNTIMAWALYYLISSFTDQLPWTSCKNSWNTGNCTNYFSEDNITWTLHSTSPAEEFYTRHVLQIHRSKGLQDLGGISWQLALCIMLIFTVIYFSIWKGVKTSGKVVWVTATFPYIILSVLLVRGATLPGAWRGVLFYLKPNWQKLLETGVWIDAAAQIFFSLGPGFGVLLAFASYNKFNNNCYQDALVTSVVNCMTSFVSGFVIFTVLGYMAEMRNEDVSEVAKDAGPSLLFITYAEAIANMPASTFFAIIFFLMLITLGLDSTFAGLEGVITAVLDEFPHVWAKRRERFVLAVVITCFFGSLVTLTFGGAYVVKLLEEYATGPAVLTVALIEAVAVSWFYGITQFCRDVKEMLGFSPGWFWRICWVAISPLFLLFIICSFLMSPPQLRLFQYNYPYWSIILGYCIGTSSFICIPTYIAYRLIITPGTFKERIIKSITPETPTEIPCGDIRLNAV

SERT [3] = target: T2, SERT; experiment: fluorescence-based serotonin uptake assay (Tsuruda et al. 2010); format: cell-based; conditions: serotonin reuptake inhibition, fluorescence-based assay (data indicated by an asterisk); read-out: SERT pIC50 (converted)
Target sequence in this assay (P31645 whole entry, species assumed): as the sequence (P31645 whole entry) above

NET [4] = target: T1, NET; experiment: hNET membrane radioligand binding assay (3H-nisoxetine); parameters: expressed in transfected cells; host or cells: HEK-293; conditions: hNET membranes (HEK-293), 1.0 nM 3H-nisoxetine; for Ki: read-out: NET pKi (converted)
Method: as §1, §2, §3, §4, §5

NET [5] = target: T1, NET; experiment: hNET neurotransmitter uptake assay (3H-NE); format: cell-based; parameters: expressed in transfected cells; host or cells: HEK-293; conditions: norepinephrine reuptake inhibition, HEK-293 hNET cells, 3H-NE (no asterisk)
Method: Neurotransmitter uptake assays were used to measure inhibition of ^3H-serotonin (^3H-5-HT), ^3H-norepinephrine (^3H-NE), and ^3H-dopamine (^3H-DA) uptake into cells expressing the respective transporter (hSERT, hNET or hDAT) in order to determine the pIC50 values of test compounds at the transporters.
HEK-293 derived cell lines stably-transfected with hSERT, hNET, or hDAT, respectively, were grown in DMEM medium supplemented with 10% dialyzed FBS (for hSERT) or FBS (for hNET and hDAT), 100 μg/ml penicillin, 100 μg/ml streptomycin, 2 mM L-glutamine and 250 μg/ml of the aminoglycoside antibiotic G418 (for hSERT and hNET) or 800 ug/ml (for hDAT), in a 5% CO2 humidified incubator at 37° C. When cultures reached 80% confluence, the cells were washed thoroughly in PBS (without Ca^2+ and Mg^2+) and lifted with 5 mM EDTA in PBS. Cells were harvested by centrifugation at 1100 rpm for 5 minutes, washed once by resuspension in PBS, then centrifuged. The supernatant was discarded and the cell pellet resuspended, by gentle trituration, in room temperature Krebs-Ringer bicarbonate buffer containing HEPES (10 mM), CaCl2 (2.2 mM), ascorbic acid (200 μM) and pargyline (200 μM), pH 7.4. The final concentration of cells in the cell suspension was 7.5×10^4 cells/ml, 1.25×10^5 cells/ml, and 5.0×10^4 cells/ml for SERT, NET, and DAT cell lines, respectively.
Neurotransmitter uptake assays were performed in a 96-well assay plate in a total volume of 400 μl assay buffer (Krebs-Ringer bicarbonate buffer containing HEPES (10 mM), CaCl2 (2.2 mM), ascorbic acid (200 μM) and pargyline (200 μM), pH 7.4) with 1.5×10^4 and 2.5×10^4 cells, for SERT, NET, and DAT, respectively. […] Stock solutions (10 mM in DMSO) of test compound were prepared and serial dilutions prepared using 50 mM Tris-HCl, 120 mM NaCl, 5 mM KCl, pH 7.4, 0.1% BSA, 400 μM ascorbic acid. Test compounds were incubated for 30 minutes at 37° C. with the respective cells, prior to addition of radiolabeled neurotransmitter, ^3H-5-HT (20 nM final concentration), ^3H-NE (50 nM final concentration) or ^3H-DA (100 nM final concentration). Non-specific neurotransmitter uptake was determined in the presence of 2.5 μM duloxetine, 2.5 μM desipramine, or 10 uM GBR-12909 (each in Dilution Buffer) for the hSERT, hNET, or hDAT assays, respectively.
Following a 10 minute incubation, at 37° C., with radioligand, the cells were harvested by rapid filtration over a 96-well UniFilter GF/B plate, pretreated with 1% BSA, and washed 6 times with 650 μl wash buffer (ice cold PBS). Plates were dried overnight at 37° C., ˜45 μl of MicroScint™-20 (Perkin Elmer) added and incorporated radioactivity quantitated via liquid scintillation spectroscopy Inhibition curves were analyzed using GraphPad Prism Software package (GraphPad Software, Inc., San Diego, Calif.). IC50 values were generated from concentration response curves using the Sigmoidal Dose Response (variable slope) algorithm in Prism GraphPad.

T1 sequence (P23975 whole entry): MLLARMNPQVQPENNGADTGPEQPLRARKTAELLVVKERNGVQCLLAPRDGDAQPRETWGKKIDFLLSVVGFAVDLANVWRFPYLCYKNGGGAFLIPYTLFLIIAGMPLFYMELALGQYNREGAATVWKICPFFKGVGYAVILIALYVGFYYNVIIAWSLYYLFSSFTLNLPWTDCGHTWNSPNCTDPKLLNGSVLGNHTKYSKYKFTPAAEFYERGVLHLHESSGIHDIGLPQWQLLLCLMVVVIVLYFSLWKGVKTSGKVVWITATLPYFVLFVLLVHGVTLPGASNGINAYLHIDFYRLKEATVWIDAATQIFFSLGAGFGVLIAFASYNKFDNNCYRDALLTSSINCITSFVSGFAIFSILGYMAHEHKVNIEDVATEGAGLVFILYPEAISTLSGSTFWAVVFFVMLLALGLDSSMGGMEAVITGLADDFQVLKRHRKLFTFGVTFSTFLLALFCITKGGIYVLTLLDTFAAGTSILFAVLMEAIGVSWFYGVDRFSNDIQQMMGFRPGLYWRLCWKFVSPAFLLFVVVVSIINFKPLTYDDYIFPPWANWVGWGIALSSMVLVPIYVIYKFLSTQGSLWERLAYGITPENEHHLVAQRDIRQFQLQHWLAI

IC50 (NET [1]) [nM] | Ki (SERT [2]) [nM] | IC50 (SERT [3]) [nM] | Ki (NET [4]) [nM] | NET pIC50 (NET [5]) | SERT pKi (SERT [2]) | NET pKi (NET [4]) | Compound
≤ 100 | ≤ 10 | ≤ 10 | ≤ 100 | – | – | – | FC(F)(F)c1ccc(O[C@@H](C2CCOCC2)[C@H]2CCNC2)cc1 [Example 13-11, (S)-3-[(S)-(Tetrahydropyran-4-yl)(4-trifluoromethylphenoxy)methyl]pyrrolidine]
– | ≤ 100 | – | ≤ 100 | – | – | – | Fc1ccc(O[C@H](C2CCOCC2)[C@@H]2CCNC2)cc1 [Example 13-10, (R)-3-[(R)-(4-Fluorophenoxy)(tetrahydropyran-4-yl)methyl]pyrrolidine]
– | ≤ 10 | – | ≤ 100 | – | – | – | FC(F)(F)c1c(Cl)cccc1OC(C1CCOCC1)C1CCNC1 [Example 13-18, (S)-3-[(S)-(3-Chloro-2-trifluoromethylphenoxy)(tetrahydropyran-4-yl)-methy]-pyrrolidine]
– | ≤ 100 | – | ≤ 10 | – | – | – | Fc1cccc(O[C@H](C2CCOCC2)[C@@H]2CCNC2)c1 [Example 13-6, (R)-3-[(R)-(3-Fluorophenoxy)(tetrahydropyran-4-yl)methyl]pyrrolidine]
– | ≤ 100 | – | ≤ 10 | – | – | – | Clc1cccc(Cl)c1O[C@H](C1CCOCC1)[C@@H]1CCNC1 [Example 13-26, (R)-3-[(R)-(2,6-Dichlorophenoxy)(tetrahydropyran-4-yl)methyl]pyrrolidine]
– | ≤ 10 | – | ≤ 100 | – | – | – | FC(F)(F)c1c(Cl)cccc1O[C@H](C1CCOCC1)[C@H]1CCNC1 [Example 13-19, (S)-3-[(R)-(3-Chloro-2-trifluoromethylphenoxy)(tetrahydropyran-4-yl)-methyl]-pyrrolidine]

The remaining lines, values behind:

Compound | IC50 (NET [1]) [nM] | Ki (SERT [2]) [nM] | IC50 (SERT [3]) [nM] | Ki (NET [4]) [nM] | NET pIC50 (NET [5]) | SERT pKi (SERT [2]) | NET pKi (NET [4])
Cc1c(Cl)cccc1O[C@@H](COC(C)C)[C@@H]1CCNC1 [Example 9-14, (R)-3-[(R)-1-(3-Chloro-2-methylphenoxy)-2-isopropoxyethyl]pyrrolidine] | ≤ 100 | ≤ 10 | ≤ 10 | ≤ 100 | – | – | –
CC(C)OC[C@H](Oc1ccc(Cl)cc1Cl)[C@@H]1CCNC1 [Example 9-22, (R)-3-[(R)-1-(2,4-Dichlorophenoxy)-2-isopropoxyethyl]pyrrolidine] | ≤ 1000 | ≤ 10 | ≤ 10 | ≤ 1000 | – | – | –
CC(C)OC[C@H](Oc1cccc(Cl)c1Cl)[C@@H]1CCNC1 [Example 9-6, (R)-3-[(R)-1-(2,3-Dichlorophenoxy)-2-isopropoxyethyl]pyrrolidine] | ≤ 100 | ≤ 10 | ≤ 100 | ≤ 100 | – | – | –
CC(C)OC[C@H](Oc1cccc(Cl)c1C(F)(F)F)[C@@H]1CCNC1 [Example 9-18, (R)-3-[(R)-1-(3-Chloro-2-trifluoromethylphenoxy)-2-isopropoxyethyl]pyrrolidine] | ≤ 100 | ≤ 10 | ≤ 100 | ≤ 100 | – | – | –
CC(C)OC[C@H](Oc1c(Cl)cccc1Cl)[C@@H]1CCNC1 [Example 9-27, (R)-3-[(R)-1-(2,6-Dichlorophenoxy)-2-isopropoxyethyl]pyrrolidine] | ≤ 100 | ≤ 1000 | ≤ 1000 | ≤ 1000 | – | – | –
CC(C)OC[C@H](Oc1cccc(C(F)(F)F)c1)[C@@H]1CCNC1 [Example 9-2, (R)-3-[(R)-2-Isopropoxy-1-(3-trifluoromethylphenoxy)ethyl]pyrrolidine] | ≤ 1000 | ≤ 100 | ≤ 100 | ≤ 10000 | – | – | –
COCC(Oc1cccc(Cl)c1Cl)C1CCNC1 (stereo not shown) [Example 4-6, 3-[1-(2,3-Dichlorophenoxy)-2-methoxyethyl]pyrrolidine] | – | – | – | – | ≧8.0 | ≧8.0 | ≧8.0
COC[C@H](Oc1c(Cl)cccc1Cl)[C@H]1CCNC1 [Example 4-28, (S)-3-[(R)-1-(2,6-Dichlorophenoxy)-2-methoxyethyl]pyrrolidine] | – | ≤ 100 | – | ≤ 10 | – | – | –
COC[C@H](Oc1cccc(C(F)(F)F)c1)[C@H]1CCNC1 [Example 4-3, (S)-3-[(R)-2-Methoxy-1-(3-trifluoromethylphenoxy)ethyl]pyrrolidine] | – | ≤ 100 | – | ≤ 100 | – | – | –
CC(C)OC[C@H](Oc1cccc(F)c1Cl)[C@@H]1CCNC1 [Example 9-10, (R)-3-[(R)-1-(2-Chloro-3-fluorophenoxy)-2-isopropoxyethyl]pyrrolidine] | ≤ 100 | ≤ 100 | ≤ 100 | ≤ 100 | – | – | –
